This experiment relates to Jurkat cells. Description: Calibration of sodium indicator fluorescence response in cells (flow cytometry). It is filed as cell-based. The following applies: Jurkat cells loaded with 5 µM for 30 minutes at 37 °C, 2 µM gramicidin, extracellular Na+ 0-145 mM, excitation at 488 nm. The protocol: Example 3: Calibration of sodium indicator fluorescence response in cells.
Jurkat cells were loaded with a 5 µM solution of either Compound 25 (a compound according to Formula (I) as shown below), or commercially available SODIUM GREEN tetraacetate indicator (Molecular Probes, Inc., Eugene, OR) and 10 µM for Compound 87 (Example 9) for 30 minutes at 37 °C. The use of PLURONIC dispersing agent helped dissolve the selected indicator. Intracellular sodium concentrations were then established by varying the sodium concentration of the extracellular buffer in the presence of 2 µM gramicidin (a sodium-pore forming antibiotic). The extracellular buffer was set at 0 mM, 10 mM, 20 mM, 50 mM, 100 mM, and 145 mM, respectively. Intracellular fluorescence response of the selected indicators was measured using a FACSCAN flow cytometer and associated software, with fluorescence excitation at 488 nm.
In general terms: A flow cytometer gives signals particle by particle.

SMILES strings stand for the structures. Entries after “also recorded” stand apart in the source; their conditions may differ.

The values below come from EP1660884B1, “CROWN ETHER DERIVATIVES” (Life Technologies Corporation, priority 2003, dated 2005).

For the molecule `CC(=O)OCOC(=O)CN1CCOCCN(CC(=O)OCOC(C)=O)c2ccc(-c3c4cc(F)c(=O)cc-4oc4cc(OCOC(C)=O)c(F)cc34)cc2OCCOc2cc(C)ccc21` [Compound 25], the “intracellular fluorescence intensity as intracellular Na^+ concentration was increased” value is recorded as “consistent increase in fluorescence intensity”. Besides, the “intracellular fluorescence intensity compared with SODIUM GREEN indicator” value (Figure 3) is reported as “substantially brighter intracellular fluorescence intensity than the SODIUM GREEN indicator; also recorded: stronger fluorescence intensity than SODIUM GREEN sodium indicator”.
